Data published in publication PMC11897524 (Frontiers in Pharmacology, 2025).

What was measured:
STAT3 [1] = target: T1, STAT3 (Homo sapiens, UniProt P40763); assay: Microscale thermophoresis (MST) assay; format: binding; parameters: purchased Abcam; conditions: MST
Description: The MST experiments were performed using the Monolith NT.115 instrument. BRD4 and STAT3 proteins were labeled with the Lys labeling kit at the final concentration of 100 nM. The compounds, previously suspended in 100% DMSO, were diluted in a buffer containing 20 mM Tris·HCl (pH 7.5), 100 mM NaCl, and 3 mM DTT, achieving a final DMSO concentration of 5%. The compounds were gradient-diluted in 1:1 dilution and starting from 100 μM. The samples were loaded into MST-standard glass capillaries. All the measurements were performed in triplicate using automatically assigned 50% MST power and 20% LED power. Data analysis was performed using GraphPad Prism 7.0 software.

STAT3 [2] = target: T1, STAT3; assay: STAT3 binding inhibition assay; parameters: purchased Abcam
BRD4 [3] = target: T2, BRD4 (Homo sapiens, UniProt O60885); assay: Microscale thermophoresis (MST) assay; format: binding; parameters: purchased Abcam; conditions: MST
BRD4 [4] = target: T2, BRD4; assay: AlphaScreen BRD4 binding inhibition assay; parameters: purchased Abcam
Description: The inhibitory effect was measured through the previously described the amplified luminescent proximity homogeneous assay (AlphaScreen) ([Feng et al., 2018]). First, the compounds were diluted twofold to different concentrations (64, 32, 16, 8, 4, 2, 1, 0.5, 0.25, 0.125, 0.0625 nM) and each was incubated with BRD4 protein at a concentration of 12.5 nM for 15 min at room temperature. Biotin-labeled peptide (SGRG-K(Ac)-GG-K(Ac)-GLG-K(Ac)-GGA-K (Ac)-RHRKVGG-K-biotin) was added for 10 min, followed by streptavidin donor beads and AlphaScreen nickel chelate acceptor and incubation for 1h. All components were incubated in a total volume of 20 μL assay buffer containing 20 mM HEPES, pH 7.4, 0.1% bovine serum albumin (BSA, w/v), 0.01% Triton X-100, and 1 mM DTT. Finally, counts were measured by EnVision (Perkin Elmer, Hopkinton, MA) and analyzed by Graphpad Prism 7.0 software.

CAKI-2 cells = assay: MTT cytotoxicity assay; format: cell-based, human; conditions: Homo sapiens, CAKI-2, cell growth, 48 h treatment, read-out: IC50 (μM) ± SD CAKI-2
Description: Human normal renal cortical proximal tubular epithelial cell line HK-2 and human renal carcinoma cell lines CAKI-2, SLR-23, 769-P, A704 and RCC4 were previously purchased from the American Type Culture Collection (ATCC, Manassas, VA, USA) or the European Collection of Cell Cultures (ECACC, Salisbury, United Kingdom). HK2, A704, and RCC4 cells were maintained in high glucose DMEM supplemented with 10% FBS and 1% penicillin/streptomycin. SLR-23 and […] cells were cultured in RPMI-1640 medium with 10% FBS and 1% penicillin/streptomycin. CAKI-2 cells were maintained in McCoy’s 5A medium supplemented with 10% FBS and 1% penicillin/streptomycin. All the cell lines were cultured at 37°C in a humidified atmosphere of 5% CO2 and 95% air.
The effect of hit compounds on cytotoxicity was determined as previously reported ([Ding et al., 2020]). In brief, cells treated with the tested compounds were added with MTT reagent to form formazan crystals, and then the optical density (OD) values at 570 nm were determined after the crystals were dissolved in DMSO. […] Next, the values of IC50 of the selected compounds against more RCC cell lines were determined. The 5 × 10^3 cells in 100 μL culture medium were injected into each well of a 96-well plate and cultured overnight. Add different concentrations of compounds and incubate for 48 h. Then 100 μL of MTT (0.5 mg/mL) solution was added to the 96-well plate and maintained at 37°C for 4 h. Finally, 200 μL of DMSO was added and shaken for 10 min. The OD values at 570 nm were determined by a Synergy 4 microplate reader.

BRD4 [5] = test system: BRD4; parameters: method as in Boi et al., 2015; conditions: BRD4 inhibitor; ref Boi et al., 2015; read-out: IC50 value as reported; cited from earlier work

T1 sequence (P40763 whole entry): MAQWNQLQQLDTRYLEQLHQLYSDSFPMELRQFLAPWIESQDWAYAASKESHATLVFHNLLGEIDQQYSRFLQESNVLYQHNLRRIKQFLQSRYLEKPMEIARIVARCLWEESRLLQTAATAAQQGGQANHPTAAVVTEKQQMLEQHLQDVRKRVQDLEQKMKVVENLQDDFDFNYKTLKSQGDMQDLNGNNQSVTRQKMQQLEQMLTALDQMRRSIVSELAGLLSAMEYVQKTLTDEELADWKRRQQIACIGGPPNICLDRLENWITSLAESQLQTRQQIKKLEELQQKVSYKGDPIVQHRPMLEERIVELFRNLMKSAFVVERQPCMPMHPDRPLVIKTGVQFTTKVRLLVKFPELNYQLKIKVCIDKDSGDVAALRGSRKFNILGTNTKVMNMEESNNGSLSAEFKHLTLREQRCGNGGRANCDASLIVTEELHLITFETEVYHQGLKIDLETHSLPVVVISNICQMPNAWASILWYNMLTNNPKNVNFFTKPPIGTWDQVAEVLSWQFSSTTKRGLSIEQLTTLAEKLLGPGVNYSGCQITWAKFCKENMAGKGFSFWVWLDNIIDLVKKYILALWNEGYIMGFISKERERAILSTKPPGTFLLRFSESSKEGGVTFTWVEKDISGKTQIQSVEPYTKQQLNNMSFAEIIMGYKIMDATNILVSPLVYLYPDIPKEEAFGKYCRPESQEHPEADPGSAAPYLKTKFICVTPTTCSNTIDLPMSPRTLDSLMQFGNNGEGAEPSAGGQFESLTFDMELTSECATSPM

Row | SMILES | Kd (STAT3 [1]) | IC50 (STAT3 [2]) | Kd (BRD4 [3]) | IC50 (BRD4 [4]) | STAT3 (IC50, nM) (STAT3 [2]) | IC50 (CAKI-2 cells) | IC50 (BRD4 [5])
1 | CCS(=O)(=O)Cc1cnc(Oc2c(F)cc(F)cc2O/C=C\CC(=O)COc2ccc(/C=C/c3cc(OC)cc(OC)c3)cc2)c(-c2cc(C)c3c(=O)[nH]ccn23)c1 [BST-2] | 0.0287 ± 0.00371 µM | 0.0272 ± 0.00282 µM | 0.00362 ± 0.00025 µM | 0.00464 ± 0.00017 µM | – | – | –
2 | CCS(=O)(=O)Cc1cnc(Oc2c(F)cc(F)cc2OCc2nc(COc3ccc(/C=C/c4cc(OC)cc(OC)c4)cc3)c[nH]2)c(-c2cc(C)c3c(=O)[nH]ccn23)c1 [BST-1] | 0.0164 ± 0.00095 µM | 0.0208 ± 0.00194 µM | 0.0123 ± 0.00116 µM | 0.0157 ± 0.00131 µM | – | – | –
3 | CCS(=O)(=O)Cc1cnc(Oc2c(F)cc(F)cc2OC[C@@H]2CCC[C@H](COc3ccc(/C=C/c4cc(OC)cc(OC)c4)cc3)N2)c(-c2cc(C)c3c(=O)[nH]ccn23)c1 [BST-3] | 0.00842 ± 0.00038 µM | 0.0113 ± 0.00095 µM | 0.00537 ± 0.00049 µM | 0.00709 ± 0.00053 µM | – | – | –
4 | CCS(=O)(=O)Cc1cnc(Oc2c(F)cc(F)cc2OCC2CCC(COc3ccc(C=Cc4cc(OC)cc(OC)c4)cc3)N2)c(-c2cc(C)c3c(=O)[nH]ccn23)c1 (stereo not shown) [BST-5] | 0.0137 ± 0.00098 µM | 0.0178 ± 0.00124 µM | 0.00972 ± 0.00084 µM | 0.0101 ± 0.00115 µM | – | – | –
5 | COc1cc(OC)c2c(=O)[nH]c(-c3cc(C)c(OCCO)c(C)c3)nc2c1 [RVX-208, reference compound] | – | – | – | – | no inhibition | 3.71 ± 0.42 µM | –
6 | Cc1sc2c(c1C)C(c1ccc(Cl)cc1)=N[C@@H](CC(=O)Nc1ccc(O)cc1)c1nnc(C)n1-2 [OTX-015] | – | – | – | – | – | – | ~0.092 µM
